In the supplement of paper PMC11208160:

assay: recombinant UMI read abundance after kanamycin selection (control-corrected) (log10(CPM+1)); higher = more efficient recombination; extreme values may be limits of the assay; sequences stand for … in AGTGCAGAGAAAATCGGCCAGTTTTCTCTGCCTGCAGTCCGCATGCCGTGGGACCCCTTGGGTTCTAACCTGTTGCCTAGATTTATGCAGCGGACTGCCTTTCTCCCAAAGTGATAAACCGG…AGGTTGGTTTCACT; site = the 11-nt donor
Procedure, shortened: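 After plating on IPTG (0.07 mM) plus kanamycin, or unselected, in two replicates, recombinant UMIs were PCR-amplified across the donor–target junction and sequenced. The cells were Escherichia coli co-electroporated with a UMI-tagged donor and donor-binding-loop pair library and a target plasmid with a fixed target and T7-inducible IS621 bridge recombinase. Values are log10(CPM+1), with CPM averaged over replicates and scaled by control-derived factors.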

Row | Sequence | recombinant UMI read abundance (log10)
1 | CTTGAGTCATGGACCGGTTTTCCCGGTAATCCGTATTTGAT (site CTTGAGTCTAT) | 2.13
2 | CTTGAGTCATGGACCGGTTTTCCCGGTAATCCGTATTTGTT (site CTTGAGTCTAA) | 2.46
3 | CTTGTAACATGGACCGGTTTTCCCGGTAATCCGTATTTGGC (site CTTGTAACTGC) | 0
4 | CTTGTAGCATGGACCGGTTTTCCCGGTAATCCGTATTTGTC (site CTTGTAGCTGA) | 0.797
5 | CTTGTCTCATGGACCGGTTTTCCCGGTAATCCGTATTTGTA (site CTTATCTCTTA) | 1.78
6 | CTTGTCTCATGGACCGGTTTTCCCGGTAATCCGTATTTGTA (site CTTCTCTCTTA) | 0.856
7 | CTTGTCTCATGGACCGGTTTTCCCGGTAATCCGTATTTGTA (site CTTGTCTCTTA) | 2.82
8 | CTTGTCTCATGGACCGGTTTTCCCGGTAATCCGTATTTGTA (site CTTTTCTCTTA) | 0
9 | CTTGTGTCATGGACCGGTTTTCCCGGTAATCCGTATTTGTG (site CTTGTGTCTCA) | 2.16
10 | CTTGTTCCATGGACCGGTTTTCCCGGTAATCCGTATTTGGT (site ATTGTTCCTAC) | 0.0155
11 | CTTGTTCCATGGACCGGTTTTCCCGGTAATCCGTATTTGGT (site CTTGTTCCTAC) | 0.00959
12 | CTTGTTCCATGGACCGGTTTTCCCGGTAATCCGTATTTGGT (site GTTGTTCCTAC) | 0.0201
13 | CTTGTTCCATGGACCGGTTTTCCCGGTAATCCGTATTTGGT (site TTTGTTCCTAC) | 0.0168
14 | CTTTACGCATGGACCGGTTTTCCCGGTAATCCGTATTTGTA (site CTTTACGCTTA) | 0.0146
15 | CTTTAGACATGGACCGGTTTTCCCGGTAATCCGTATTTGAG (site CATTAGACTCT) | 0.351
16 | CTTTAGACATGGACCGGTTTTCCCGGTAATCCGTATTTGAG (site CCTTAGACTCT) | 0
17 | CTTTAGACATGGACCGGTTTTCCCGGTAATCCGTATTTGAG (site CGTTAGACTCT) | 0.118
18 | CTTTAGACATGGACCGGTTTTCCCGGTAATCCGTATTTGAG (site CTTTAGACTCT) | 1.31
19 | CTTTATACATGGACCGGTTTTCCCGGTAATCCGTATTTGTT (site CTTTATACTAA) | 0.121

Row | Sequence | recombinant UMI read abundance (log10)
20 | CTTTATTCATGGACCGGTTTTCCCGGTAATCCGTATTTGCG (site CTTTATTCTCG) | 1.11
21 | CTTTGCCCATGGACCGGTTTTCCCGGTAATCCGTATTTGCT (site CTTTGCCCTAG) | 0.182
22 | CTTTGGGCATGGACCGGTTTTCCCGGTAATCCGTATTTGCC (site CTTTGGGCTGG) | 0
23 | CTTTTATCATGGACCGGTTTTCCCGGTAATCCGTATTTGAC (site CTAGTATCTGT) | 0.225
24 | CTTTTATCATGGACCGGTTTTCCCGGTAATCCGTATTTGAC (site CTTTTATCTGT) | 0.762
25 | GAAAAACCATGGACCGGTTTTCCCGGTAATCCGTATTTGGT (site GAAAAACCTAC) | 0
26 | GAAAAACCATGGACCGGTTTTCCCGGTAATCCGTATTTGGT (site GACAAACCTAC) | 0
27 | GAAAAACCATGGACCGGTTTTCCCGGTAATCCGTATTTGGT (site GAGAAACCTAC) | 0
28 | GAAAAACCATGGACCGGTTTTCCCGGTAATCCGTATTTGGT (site GATAAACCTAC) | 0
29 | GAAAAGGCATGGACCGGTTTTCCCGGTAATCCGTATTTGTC (site GAAAAGGCTGA) | 2.08
30 | GAAACACCATGGACCGGTTTTCCCGGTAATCCGTATTTGAG (site GAAACACCTCT) | 0.0146
31 | GAAAGCCCATGGACCGGTTTTCCCGGTAATCCGTATTTGAC (site GAAAGCCCTGT) | 0
32 | GAAAGCTCATGGACCGGTTTTCCCGGTAATCCGTATTTGCC (site GAAAGCTCTGG) | 2.75
33 | GAAATCTCATGGACCGGTTTTCCCGGTAATCCGTATTTGCG (site GAAATCTCTCG) | 2.44
34 | GAAATGGCATGGACCGGTTTTCCCGGTAATCCGTATTTGAC (site GAAATGGCTGT) | 1.42
35 | GAACAATCATGGACCGGTTTTCCCGGTAATCCGTATTTGCC (site GAACAATCTGG) | 1.67
36 | GAACCGTCATGGACCGGTTTTCCCGGTAATCCGTATTTGTT (site GAACCGTCTAA) | 1
37 | GAACGAACATGGACCGGTTTTCCCGGTAATCCGTATTTGGT (site GAACGAACTAC) | 1.21
38 | GAACTAGCATGGACCGGTTTTCCCGGTAATCCGTATTTGGT (site CGTTGCCCTTA) | 0.00867

Row | Sequence | recombinant UMI read abundance (log10)
39 | GAACTGGCATGGACCGGTTTTCCCGGTAATCCGTATTTGCT (site GAACTGGCTAG) | 0.00438
40 | GAACTTGCATGGACCGGTTTTCCCGGTAATCCGTATTTGAC (site CTTACCACTAA) | 0.0118
41 | GAAGAGACATGGACCGGTTTTCCCGGTAATCCGTATTTGCT (site GAAGAGACTAG) | 2.79
42 | GAAGATGCATGGACCGGTTTTCCCGGTAATCCGTATTTGTT (site GAAGATACTAA) | 1.88
43 | GAAGATGCATGGACCGGTTTTCCCGGTAATCCGTATTTGTT (site GAAGATCCTAA) | 0.286
44 | GAAGATGCATGGACCGGTTTTCCCGGTAATCCGTATTTGTT (site GAAGATGCTAA) | 2.81
45 | GAAGATGCATGGACCGGTTTTCCCGGTAATCCGTATTTGTT (site GAAGATTCTAA) | 0
46 | GAAGATTCATGGACCGGTTTTCCCGGTAATCCGTATTTGGT (site GAAGATTCTAA) | 0.995
47 | GAAGATTCATGGACCGGTTTTCCCGGTAATCCGTATTTGGT (site GAAGATTCTAC) | 3.05
48 | GAAGATTCATGGACCGGTTTTCCCGGTAATCCGTATTTGGT (site GAAGATTCTAG) | 0
49 | GAAGATTCATGGACCGGTTTTCCCGGTAATCCGTATTTGGT (site GAAGATTCTAT) | 1.82
50 | GAAGATTCATGGACCGGTTTTCCCGGTAATCCGTATTTGTA (site GAAGATTCTAA) | 0.349
51 | GAAGATTCATGGACCGGTTTTCCCGGTAATCCGTATTTGTA (site GAAGATTCTCA) | 1.55
52 | GAAGATTCATGGACCGGTTTTCCCGGTAATCCGTATTTGTA (site GAAGATTCTGA) | 0
53 | GAAGATTCATGGACCGGTTTTCCCGGTAATCCGTATTTGTA (site GAAGATTCTTA) | 2.5
54 | GAAGCAGCATGGACCGGTTTTCCCGGTAATCCGTATTTGCT (site AAAGCAGCTAG) | 1.32
55 | GAAGCAGCATGGACCGGTTTTCCCGGTAATCCGTATTTGCT (site CAAGCAGCTAG) | 1.19
56 | GAAGCAGCATGGACCGGTTTTCCCGGTAATCCGTATTTGCT (site GAAGCAGCTAG) | 2.25
57 | GAAGCAGCATGGACCGGTTTTCCCGGTAATCCGTATTTGCT (site TAAGCAGCTAG) | 2.01
